Measurements taken from ChEMBL document CHEMBL4828715, “Discovery, Structure-Activity Relationships, and In Vivo Evaluation of Novel Aryl Amides as Brain Penetrant Adaptor Protein 2-Associated Kinase 1 (AAK1) Inhibitors for the Treatment of Neuropathic Pain” (J Med Chem, 2021).
Values after ≈ are worked out from the molar mass of the structure shown. Active and inactive are the calls of the source. The calls are words filed in the database; no cut-off is given here.

Key:
[1] = Drug concentration in brain of Sprague-Dawley rat model of chronic constriction injury-induced neuropathic pain at 3 mg/kg, sc; assay type: ADME, organism-based; settings: in vivo, read-out: Ct
[2] = target: AP2-associated protein kinase 1 (Mus musculus, UniProt Q3UHJ0); test: In vivo inhibition of AAK1 in C57BL6 mouse assessed as suppression of mu2 phosphorylation in brain lysate by Western blot analysis; assay type: functional, organism-based
Chain of AP2-associated protein kinase 1 (Mus musculus, UniProt Q3UHJ0) (Q3UHJ0 whole entry): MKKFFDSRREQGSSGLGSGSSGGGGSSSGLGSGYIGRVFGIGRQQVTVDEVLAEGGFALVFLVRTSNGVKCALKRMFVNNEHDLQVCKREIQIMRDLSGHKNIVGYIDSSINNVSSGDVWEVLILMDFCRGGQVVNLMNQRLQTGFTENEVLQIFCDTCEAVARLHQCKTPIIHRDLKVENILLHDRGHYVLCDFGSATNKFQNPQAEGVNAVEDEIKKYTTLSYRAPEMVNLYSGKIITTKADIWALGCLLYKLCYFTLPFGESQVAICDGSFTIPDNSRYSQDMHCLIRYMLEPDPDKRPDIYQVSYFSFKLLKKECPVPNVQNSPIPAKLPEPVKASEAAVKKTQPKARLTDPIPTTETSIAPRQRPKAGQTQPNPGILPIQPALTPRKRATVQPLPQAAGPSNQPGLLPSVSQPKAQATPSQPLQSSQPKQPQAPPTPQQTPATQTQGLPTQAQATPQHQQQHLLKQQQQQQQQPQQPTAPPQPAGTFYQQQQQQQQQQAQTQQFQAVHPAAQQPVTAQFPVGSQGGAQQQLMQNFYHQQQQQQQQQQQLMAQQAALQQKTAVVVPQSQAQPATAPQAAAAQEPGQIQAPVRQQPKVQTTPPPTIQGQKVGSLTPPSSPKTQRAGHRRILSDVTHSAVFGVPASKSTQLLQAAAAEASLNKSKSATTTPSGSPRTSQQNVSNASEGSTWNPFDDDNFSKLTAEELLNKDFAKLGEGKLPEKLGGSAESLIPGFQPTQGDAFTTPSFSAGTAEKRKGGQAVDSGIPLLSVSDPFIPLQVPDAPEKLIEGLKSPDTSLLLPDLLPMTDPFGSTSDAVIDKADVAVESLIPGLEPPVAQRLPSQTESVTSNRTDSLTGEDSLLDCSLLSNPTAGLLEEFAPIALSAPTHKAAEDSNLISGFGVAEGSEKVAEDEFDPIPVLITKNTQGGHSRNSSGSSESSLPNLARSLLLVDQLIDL

[3] = Drug concentration in brain of Sprague-Dawley rat model of chronic constriction injury-induced neuropathic pain at 30 mg/kg, sc; assay type: ADME, organism-based; settings: in vivo, read-out: Ct
[4] = target: AP2-associated protein kinase 1 (Mus musculus) (UniProt Q3UHJ0); test: In vivo inhibition of AAK1 in C57BL6 mouse assessed as suppression of mu2 phosphorylation in brain lysate at 60 mg/kg, sc measured after 30 mins by Western blot analysis relative to control; assay type: functional, organism-based
Chain of AP2-associated protein kinase 1 (Mus musculus) (Q3UHJ0 whole entry, looked up): as the sequence (Q3UHJ0 whole entry) above

[5] = tested on: Rattus norvegicus; test: Antinociceptive activity in Sprague-Dawley rat model of chronic constriction injury-induced neuropathic pain assessed as reduction in thermal hyperalgesia 60 mg/kg, sc by Von Frey test relative to control; assay type: functional; set-up: scale not given: the % may be the effect or the level left
[6] = Ratio of drug concentration in brain to plasma in C57BL6 mouse at 30 mg/kg, sc; assay type: ADME, organism-based; settings: read-out: BPR
[7] = target: T1, BMP-2-inducible protein kinase (Homo sapiens, UniProt Q9NSY1); test: Inhibition of wild-type human partial length BIKE (S34 to N329 residues) expressed in bacterial expression system by Kinomescan method
Target sequence in this assay (Q9NSY1 whole entry, the tested form may be a part): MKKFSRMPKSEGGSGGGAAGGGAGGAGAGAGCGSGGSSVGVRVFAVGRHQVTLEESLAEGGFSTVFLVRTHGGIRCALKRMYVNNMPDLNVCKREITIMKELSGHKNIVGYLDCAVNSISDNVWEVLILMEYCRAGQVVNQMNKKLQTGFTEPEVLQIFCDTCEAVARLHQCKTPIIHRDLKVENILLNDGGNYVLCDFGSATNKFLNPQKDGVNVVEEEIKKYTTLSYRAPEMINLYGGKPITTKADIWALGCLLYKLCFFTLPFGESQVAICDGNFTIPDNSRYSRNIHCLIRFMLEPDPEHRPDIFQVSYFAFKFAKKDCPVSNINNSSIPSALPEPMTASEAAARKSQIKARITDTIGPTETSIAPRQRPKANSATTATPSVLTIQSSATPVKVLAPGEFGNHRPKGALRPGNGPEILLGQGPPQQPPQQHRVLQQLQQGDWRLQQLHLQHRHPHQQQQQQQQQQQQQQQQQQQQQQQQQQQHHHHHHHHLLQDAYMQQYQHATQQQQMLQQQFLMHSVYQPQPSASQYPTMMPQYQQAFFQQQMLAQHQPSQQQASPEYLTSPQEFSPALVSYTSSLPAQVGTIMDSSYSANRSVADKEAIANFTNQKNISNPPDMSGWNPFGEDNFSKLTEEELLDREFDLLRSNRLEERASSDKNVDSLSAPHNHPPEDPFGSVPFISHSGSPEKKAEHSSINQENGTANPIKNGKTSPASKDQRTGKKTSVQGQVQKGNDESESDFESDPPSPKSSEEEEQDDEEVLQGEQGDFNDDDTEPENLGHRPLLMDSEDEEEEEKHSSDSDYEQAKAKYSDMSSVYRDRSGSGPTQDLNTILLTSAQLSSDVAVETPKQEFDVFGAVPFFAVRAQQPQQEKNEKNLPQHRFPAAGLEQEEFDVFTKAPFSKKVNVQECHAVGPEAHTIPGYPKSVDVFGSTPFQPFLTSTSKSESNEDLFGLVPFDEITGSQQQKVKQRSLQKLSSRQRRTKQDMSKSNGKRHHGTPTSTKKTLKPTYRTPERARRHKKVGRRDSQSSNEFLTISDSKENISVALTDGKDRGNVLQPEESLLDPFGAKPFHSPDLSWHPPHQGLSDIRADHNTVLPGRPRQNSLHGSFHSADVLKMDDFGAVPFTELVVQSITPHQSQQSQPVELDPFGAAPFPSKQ

[8] = Aqueous solubility of the compound at pH 1; assay type: physicochemical
[9] = Protein binding in mouse plasma assessed as unbound fraction at 10 uM measured after 5 hrs by equilibrium dialysis method
[10] = target: T2, MAP kinase-interacting serine/threonine-protein kinase 2 (Homo sapiens, UniProt Q9HBH9); test: Inhibition of wild-type human partial length MKNK2 (G63 to S388 residues) expressed in mammalian expression system assessed as residual binding level at 1 uM by Kinomescan method relative to control
Target sequence in this assay (Q9HBH9 whole entry, looked up, the tested form may be a part): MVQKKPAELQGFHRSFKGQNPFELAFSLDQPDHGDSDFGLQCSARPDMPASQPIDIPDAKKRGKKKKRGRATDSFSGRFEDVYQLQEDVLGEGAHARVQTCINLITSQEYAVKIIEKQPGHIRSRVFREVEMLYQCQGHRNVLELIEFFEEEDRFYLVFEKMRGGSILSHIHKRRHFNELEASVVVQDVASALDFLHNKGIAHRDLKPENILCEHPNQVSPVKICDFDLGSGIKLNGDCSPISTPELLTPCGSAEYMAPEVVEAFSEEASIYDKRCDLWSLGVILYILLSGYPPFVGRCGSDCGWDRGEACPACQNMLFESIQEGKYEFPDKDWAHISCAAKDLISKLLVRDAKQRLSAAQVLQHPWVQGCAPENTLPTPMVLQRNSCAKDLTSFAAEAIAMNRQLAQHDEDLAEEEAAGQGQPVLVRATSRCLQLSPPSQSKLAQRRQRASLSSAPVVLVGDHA

[11] = target: T2, MAP kinase-interacting serine/threonine-protein kinase 2; test: Inhibition of wild-type human partial length MKNK2 (G63 to S388 residues) expressed in mammalian expression system by Kinomescan method
Target sequence in this assay (Q9HBH9 whole entry, the tested form may be a part): as the sequence (Q9HBH9 whole entry, looked up, the tested form may be a part) above

[12] = tested on: Rattus norvegicus; test: Antinociceptive activity in Sprague-Dawley rat model of chronic constriction injury-induced neuropathic pain assessed as reduction in paw withdrawal latency at 60 mg/kg, sc by Von Frey test; assay type: functional, organism-based
[13] = target: AP2-associated protein kinase 1 (Mus musculus) (UniProt Q3UHJ0); test: In vivo inhibition of AAK1 in sc dosed C57BL6 mouse assessed as suppression of mu2 phosphorylation in brain lysate by Western blot analysis; assay type: functional, organism-based
[14] = target: Sodium-dependent noradrenaline transporter (Homo sapiens, UniProt P23975); test: Inhibition of NET (unknown origin)
[15] = Unbound drug concentration in plasma of Sprague-Dawley rat model of chronic constriction injury-induced neuropathic pain at 10 mg/kg, sc; assay type: ADME, organism-based; settings: in vivo
[16] = target: AP2-associated protein kinase 1 (Homo sapiens, UniProt Q2M2I8); test: Inhibition of recombinant GST-Xa-tagged human AAK1 (30 to 330 residues) using 5-FAM-labelled Alla-KEEQSQITSQVTGQIGWR-NH2 peptide as substrate incubated for 3 hrs in presence of ATP by electrophoretic analysis
[17] = tested on: Mus musculus; test: Antinociceptive activity against formalin-induced nociceptive behavior in C57BL6 mouse assessed as reduction in phase 2 hind paw flinching at 10 mg/kg, sc administered 60 mins prior to formalin challenge by formalin test; assay type: functional, organism-based
[18] = tested on: Rattus norvegicus; test: Antinociceptive activity in Sprague-Dawley rat model of chronic constriction injury-induced neuropathic pain assessed as reduction in mechanical hyperalgesia 60 mg/kg, sc by Von Frey test relative to control; assay type: functional; set-up: scale not given: the % may be the effect or the level left
[19] = target: T1, BMP-2-inducible protein kinase; test: Inhibition of wild-type human partial length BIKE (S34 to N329 residues) expressed in bacterial expression system assessed as residual binding level at 1 uM by Kinomescan method relative to control
Target sequence in this assay (Q9NSY1 whole entry, looked up, the tested form may be a part): as the sequence (Q9NSY1 whole entry, the tested form may be a part) above

[20] = target: AP2-associated protein kinase 1 (Mus musculus) (UniProt Q3UHJ0); test: In vivo inhibition of AAK1 in C57BL6 mouse assessed as suppression of mu2 phosphorylation in brain lysate at 10 mg/kg, sc measured after 30 mins by Western blot analysis relative to control; assay type: functional, organism-based
[21] = Drug concentration in plasma of Sprague-Dawley rat model of chronic constriction injury-induced neuropathic pain at 3 mg/kg, sc; assay type: ADME, organism-based; settings: in vivo
[22] = tested on: Rattus norvegicus; test: Antinociceptive activity in Sprague-Dawley rat model of chronic constriction injury-induced neuropathic pain assessed as reduction in thermal hyperalgesia 3 mg/kg, sc by Von Frey test relative to control; assay type: functional; set-up: scale not given: the % may be the effect or the level left
[23] = Drug concentration in brain of Sprague-Dawley rat model of chronic constriction injury-induced neuropathic pain at 1 mg/kg, sc; assay type: ADME, organism-based; settings: in vivo, read-out: Ct
[24] = Drug concentration in plasma of C57BL6 mouse at 0.3 mg/kg, sc; assay type: ADME, organism-based; settings: in vivo
[25] = target: Cyclin-G-associated kinase (Homo sapiens, UniProt O14976); test: Inhibition of wild-type human partial length GAK (G13 to Y338 residues) expressed in bacterial expression system by Kinomescan method
[26] = target: Serine/threonine-protein kinase RIO1 (Homo sapiens) (UniProt Q9BRS2); test: Inhibition of wild-type human full length RIOK1 (M1 to K568 residues) expressed in bacterial expression system assessed as residual binding level at 1 uM by Kinomescan method relative to control
Chain of Serine/threonine-protein kinase RIO1 (Homo sapiens) (Q9BRS2 whole entry, the tested form may be a part): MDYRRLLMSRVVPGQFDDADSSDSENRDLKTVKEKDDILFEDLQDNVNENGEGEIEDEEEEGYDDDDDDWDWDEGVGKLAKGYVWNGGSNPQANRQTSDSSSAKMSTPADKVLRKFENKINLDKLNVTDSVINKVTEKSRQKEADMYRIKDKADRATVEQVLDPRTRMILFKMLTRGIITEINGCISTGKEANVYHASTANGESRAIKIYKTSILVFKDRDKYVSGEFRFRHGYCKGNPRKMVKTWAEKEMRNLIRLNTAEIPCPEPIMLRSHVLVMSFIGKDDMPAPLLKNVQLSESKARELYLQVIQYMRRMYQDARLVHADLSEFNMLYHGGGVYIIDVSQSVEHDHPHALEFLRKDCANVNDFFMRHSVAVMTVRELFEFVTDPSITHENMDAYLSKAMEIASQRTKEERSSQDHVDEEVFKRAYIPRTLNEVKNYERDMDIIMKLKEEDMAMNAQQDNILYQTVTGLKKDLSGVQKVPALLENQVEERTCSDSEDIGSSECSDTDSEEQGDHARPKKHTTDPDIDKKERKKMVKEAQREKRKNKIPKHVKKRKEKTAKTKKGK

[27] = target: Serine/threonine-protein kinase haspin (Homo sapiens, UniProt Q8TF76); test: Inhibition of wild-type human partial length HASPIN (I452 to K798 residues) expressed in mammalian expression system by Kinomescan method relative to control
[28] = target: Mu-type opioid receptor (Homo sapiens, UniProt P35372); test: Inhibition of mu opioid receptor (unknown origin)
[29] = Permeability of the compound at pH 5.5 incubated for 4 hrs by PAMPA-based UV spectrophotometry; assay type: ADME; settings: read-out: permeability
[30] = target: Phosphatidylinositol 4-phosphate 5-kinase type-1 alpha (Homo sapiens) (UniProt Q99755); test: Inhibition of wild-type human full length PIP5K1A (M1 to H562 residues) expressed in bacterial expression system assessed as residual binding level at 1 uM by Kinomescan method relative to control
Chain of Phosphatidylinositol 4-phosphate 5-kinase type-1 alpha (Homo sapiens) (Q99755 whole entry, the tested form may be a part): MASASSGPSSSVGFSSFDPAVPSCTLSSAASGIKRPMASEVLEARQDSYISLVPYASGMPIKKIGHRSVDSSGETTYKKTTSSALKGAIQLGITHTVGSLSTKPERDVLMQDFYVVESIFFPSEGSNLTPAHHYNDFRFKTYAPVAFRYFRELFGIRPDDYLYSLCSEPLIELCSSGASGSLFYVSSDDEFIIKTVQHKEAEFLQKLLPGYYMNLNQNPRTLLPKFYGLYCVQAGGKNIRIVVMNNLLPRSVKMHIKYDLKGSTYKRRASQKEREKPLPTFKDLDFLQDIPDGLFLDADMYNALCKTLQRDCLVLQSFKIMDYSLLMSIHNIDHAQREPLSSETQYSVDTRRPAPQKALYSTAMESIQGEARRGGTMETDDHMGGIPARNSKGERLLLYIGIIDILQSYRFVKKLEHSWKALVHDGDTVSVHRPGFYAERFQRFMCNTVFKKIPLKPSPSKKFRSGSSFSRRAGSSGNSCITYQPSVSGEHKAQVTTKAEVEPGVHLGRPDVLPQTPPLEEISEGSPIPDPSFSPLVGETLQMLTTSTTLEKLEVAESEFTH

[31] = target: Alpha-2A adrenergic receptor (Homo sapiens, UniProt P08913); test: Inhibition of alpha 2A adrenergic receptor (unknown origin)
Chain of Alpha-2A adrenergic receptor (P08913 whole entry, the tested form may be a part): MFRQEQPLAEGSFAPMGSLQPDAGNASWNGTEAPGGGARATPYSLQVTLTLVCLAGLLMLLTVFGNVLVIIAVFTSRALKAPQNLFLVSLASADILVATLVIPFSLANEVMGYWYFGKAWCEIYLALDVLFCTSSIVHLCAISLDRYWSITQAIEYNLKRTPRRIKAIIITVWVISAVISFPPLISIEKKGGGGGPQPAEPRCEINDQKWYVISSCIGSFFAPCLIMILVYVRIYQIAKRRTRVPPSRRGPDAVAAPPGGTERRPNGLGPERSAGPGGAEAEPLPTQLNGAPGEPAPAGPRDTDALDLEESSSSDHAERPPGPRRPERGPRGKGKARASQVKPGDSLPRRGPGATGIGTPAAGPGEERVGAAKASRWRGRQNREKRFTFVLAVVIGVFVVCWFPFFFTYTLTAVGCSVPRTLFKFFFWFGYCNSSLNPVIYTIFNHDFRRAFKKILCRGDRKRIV

[32] = target: Serine/threonine-protein kinase RIO2 (Homo sapiens) (UniProt Q9BVS4); test: Inhibition of wild-type human partial length RIOK2 (M1 to D313 residues) expressed in mammalian expression system assessed as residual binding level at 1 uM by Kinomescan method relative to control
[33] = Drug concentration in Sprague-Dawley rat plasma at 60 mg/kg, sc measured after 190 mins; assay type: ADME, organism-based
[34] = target: cAMP-dependent protein kinase catalytic subunit PRKX (Homo sapiens) (UniProt P51817); test: Inhibition of wild-type human partial length PRKX (M1 to F358 residues) expressed in bacterial expression system assessed as residual binding level at 1 uM by Kinomescan method relative to control
Chain of cAMP-dependent protein kinase catalytic subunit PRKX (Homo sapiens) (P51817 whole entry, the tested form may be a part): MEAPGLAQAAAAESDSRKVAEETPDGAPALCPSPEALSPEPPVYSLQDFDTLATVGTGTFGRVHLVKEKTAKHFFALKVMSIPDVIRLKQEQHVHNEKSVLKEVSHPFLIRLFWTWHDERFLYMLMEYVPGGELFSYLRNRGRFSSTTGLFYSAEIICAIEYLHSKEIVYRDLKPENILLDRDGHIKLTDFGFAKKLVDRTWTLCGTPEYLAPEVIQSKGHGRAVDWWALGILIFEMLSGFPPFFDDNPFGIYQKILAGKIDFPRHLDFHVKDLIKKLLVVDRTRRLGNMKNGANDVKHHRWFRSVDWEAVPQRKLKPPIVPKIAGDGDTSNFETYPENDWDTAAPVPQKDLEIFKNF

[35] = Drug concentration in Sprague-Dawley rat plasma at 30 mg/kg, sc measured after 190 mins; assay type: ADME, organism-based
[36] = Inhibition of PKA (unknown origin); set-up: species or system Homo sapiens
[37] = Unbound brain-to-plasma concentration ratio in Sprague-Dawley rat model of chronic constriction injury-induced neuropathic pain at 60 mg/kg, sc measured after 240 mins; assay type: ADME, organism-based; settings: read-out: K(p,uu,brain)

CC(C)C[C@@H](N)C(=O)Nc1ccc(-c2cnco2)c(OC(F)F)c1
concentration [1]: 900 nM
EC50 [2]: 8300 nM
concentration [3]: 33000 nM
inhibition [4]: 80%
Activity [5]: 113%
Kp [6]: 1.04
IC50 [7]: 120 nM
solubility [8]: 5850 µg/mL (≈ 17.2 mM)
fraction unbound at 5 h, 10 µM [9]: 0.041
Activity [10]: 1.4%
IC50 [11]: 428 nM
Activity [12]: Active
ED50 [13]: 6 mg/kg
IC50 [14]: > 30000 nM
Cp(f) [15]: 220 nM
IC50 [16]: 12 nM
Activity [17]: Active
Activity [18]: 45%
Activity [19]: 6.2%
inhibition [20]: 56%
concentration [21]: 1100 nM
Activity [22]: 35%
concentration [23]: 350 nM
concentration [24]: 400 nM
IC50 [25]: 1060 nM
Activity [26]: 7.6%
IC50 [27]: 922 nM
IC50 [28]: > 30000 nM
Papp at 4 h [29]: 91.8 ×10⁻⁶ cm/s
Activity [30]: 31%
IC50 [31]: > 30000 nM
Activity [32]: 3.8%
concentration at 3.167 h [33]: 84000 nM
Activity [34]: 19%
concentration at 3.167 h [35]: 3400 nM
IC50 [36]: 570 nM
Kp uu at 4 h [37]: 0.7
